Patent publication US10227323B2, “Glucosylceramide synthase inhibitors for the treatment of diseases” (BIOMARIN PHARMACEUTICAL INC., priority 2013, dated 2019)

Each compound was assayed against T1, GCS (Canis lupus familiaris, UniProt A0A8I3MXG6) (assay: Assay 1: GCS Enzymatic Assay (MDCK cell lysate, C6-NBD-Ceramide, LC/MS)). Conditions: Table 1; MDCK cell lysate; read-out: IC50 (nM) generated from Assay 1.
T1 sequence (A0A8I3MXG6 1-394): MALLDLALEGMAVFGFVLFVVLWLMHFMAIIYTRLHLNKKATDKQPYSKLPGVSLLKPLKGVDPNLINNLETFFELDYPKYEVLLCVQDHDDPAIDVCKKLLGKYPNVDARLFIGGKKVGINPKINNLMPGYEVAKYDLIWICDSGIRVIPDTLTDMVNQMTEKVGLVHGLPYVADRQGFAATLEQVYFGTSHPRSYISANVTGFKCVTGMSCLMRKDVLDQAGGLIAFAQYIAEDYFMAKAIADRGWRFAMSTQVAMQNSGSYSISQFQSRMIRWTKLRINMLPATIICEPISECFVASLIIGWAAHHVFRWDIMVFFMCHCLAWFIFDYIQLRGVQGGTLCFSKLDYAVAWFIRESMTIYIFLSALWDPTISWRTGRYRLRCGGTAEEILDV
Format: biochemical, canine
Procedure: This assay was modified based on the study by Larsen et al. (J. Lipid Res. 2011, 53, 282). Madin-Darby canine kidney (MDCK) cell lysate was prepared using M-PER Mammalian Protein Extraction Reagent (Thermal Scientific) in the presence of a protease inhibitor cocktail (Roche). Protein concentration was determined using BCA assay kit (Pierce). Sixty micrograms of MDCK cell lysate was incubated with various concentrations of a compound described herein from 0.001 μM-10 μM, respectively, in 100 mM Tris buffer (pH 7.5) containing 10 mM MgCl2, 1 mM dithiothreitol, 1 mM EGTA, 2 mM NAD, 100 μM UDP-glucose, 10 μM C6-NBD-Ceramide (Matreya LLC, Pleasant Gap, Pa.), 35 μM dioleoylphosphatidylcholine and 5 μM sulfatide (Sigma) in a final reaction volume of 100 μL at 37° C. for 1 hour. 0.1% DMSO was used as mock treatment or control. The reaction was terminated by adding 100 μL acetonitrile solution and subjected to LC/MS analysis.
The quantitative analysis of NBD-Ceramide and glucosylceramide was performed on a Shimadzu ultra-fast liquid chromatography (Shimadzu, Japan) coupled with API 4000 triple quadrupole mass spectrometer (Applied Biosystems, Concord, Ontario, Canada). Sample separation was conducted on a Waters Xbridge™ BEH130 C18, 100 mm×4.6 mm i.d, 3.5 μm (Milford, Mass., USA). The mobile phase consisted of water and acetonitrile supplemented with 0.1% formic acid (v/v). The flow rate was 1.0 mL/min. The initial mobile phase was 20% acetonitrile and was ramped in a linear fashion to 50% acetonitrile in 0.4 min. From 0.4 to 1.5 min, the gradient was ramped to 98% acetonitrile, and then was held at […] until 8.0 min. Acetonitrile was reset to 20% in 1.5 min, and maintained until 10.0 min. The total run time was 10.0 min. The MS/MS detection was performed in ESI positive mode. The mass transition of NBD-Ceramide was m/z 576.36→558.40 under the collision energy of 15 V, and the mass transition of glucosylceramide was m/z 738.35→558.40 under 21V collision energy. The cell lysate was diluted with equal volume of acetonitrile. Aliquots of 50 μL diluted samples were added to 1.5 mL tubes, and 100 μL of acetonitrile containing internal standard (100 ng/mL tolbutamide) were added for protein precipitation. The mixture were vortexed and then centrifuged at 13000 rpm for 10 min. 70 μL of supernatant were mixed with 140 μL of H2O and the final solution were injected for LC/MS/MS analysis and IC50's and/or percent inhibitions calculated.
Work on `Cn1ncc2cc([C@@H](O)[C@@H](CN3CCCC3)NC(=O)C(F)(F)c3cc4cc(Cl)ccc4o3)ccc21` [Compound 49, 2-(5-chlorobenzofuran-2-yl)-2,2-difluoro-N-((1R,2R)-1-hydroxy-1-(1-methyl-1H-indazol-5-yl)-3-(pyrrolidin-1-yl)propan-2-yl)acetamide] yielded an IC50 of 50 to 5000 nM.
With `O=C(N[C@H](CN1CCCC1)[C@H](O)c1ccc2c(c1)OCCO2)/C(=N/O)c1cc2cc(Cl)ccc2o1` [Compound 72, (E)-2-(5-chlorobenzofuran-2-yl)-N-((1R,2R)-1-(2,3-dihydrobenzo[b][1,4]dioxin-6-yl)-1-hydroxy-3-(pyrrolidin-1-yl)propan-2-yl)-2-(hydroxyimino)acetamide] the IC50 was < 50 nM.

Same assay, conditions: Table 1; values marked *; MDCK cell lysate
With `O=C(N[C@H](CN1CCC1)[C@@H](O)c1ccc2c(c1)OCCO2)C(F)(F)c1cc2cc(Cl)ccc2o1` [Compound 32C, N-((1S,2R)-3-(azetidin-1-yl)-1-(2,3-dihydrobenzo[b][1,4]dioxin-6-yl)-1-hydroxypropan-2-yl)-2-(5-chlorobenzofuran-2-yl)-2,2-difluoroacetamide] the “% inhibition generated from Assay 1” value was “B* (the compound had a % inhibition of greater than or equal to about 3% but less than about 50%)”.
`O=C(N[C@H](CN1CCCC1)[C@@H](O)c1ccc2ncccc2c1)C(F)(F)c1cc2cc(Cl)ccc2o1` [Compound 34G, 2-(5-chlorobenzofuran-2-yl)-2,2-difluoro-N-((1S,2R)-1-hydroxy-3-(pyrrolidin-1-yl)-1-(quinolin-6-yl)propan-2-yl)acetamide] was tested, and the “% inhibition generated from Assay 1” value was “B* (the compound had a % inhibition of greater than or equal to about 3% but less than about 50%)”.
`O=C(N[C@H](CN1CCCC1)[C@H](O)c1ccc2c(c1)OCCO2)C(F)(F)/C=C/c1ccc(Cl)cc1` [Compound 25, (E)-4-(4-chlorophenyl)-N-((1R,2R)-1-(2,3-dihydrobenzo[b][1,4]dioxin-6-yl)-1-hydroxy-3-(pyrrolidin-1-yl)propan-2-yl)-2,2-difluorobut-3-enamide] was tested, and the “% inhibition generated from Assay 1” value was “B* (the compound had a % inhibition of greater than or equal to about 3% but less than about 50%)”.

Same assay, conditions: Table 2; data marked by *
In the case of `O=C(N[C@H](CN1CCCC1)[C@H](O)c1ccc2c(c1)OCCO2)C(=O)N1CCN(c2ccc(F)cc2)CC1` [Compound 252, N-((1R,2R)-1-(2,3-dihydrobenzo[b][1,4]dioxin-6-yl)-1-hydroxy-3-(pyrrolidin-1-yl)propan-2-yl)-2-(4-(4-fluorophenyl)piperazin-1-yl)-2-oxoacetamide], the “% inhibition generated from Assay 1” value is reported as “A* (the compound had a % inhibition of a percent inhibition of greater than or equal to about 50%)”.
In the case of `O=C(N[C@H](CN1CCCC1)[C@H](O)c1ccc2c(c1)OCCO2)/C(=N/O)c1ccc(-c2ccc(F)cn2)cc1` [Compound 190, (E)-N-((1R,2R)-1-(2,3-dihydrobenzo[b][1,4]dioxin-6-yl)-1-hydroxy-3-(pyrrolidin-1-yl)propan-2-yl)-2-(4-(5-fluoropyridin-2-yl)phenyl)-2-(hydroxyimino)acetamide], the “% inhibition generated from Assay 1” value is reported as “A* (the compound had a % inhibition of a percent inhibition of greater than or equal to about 50%)”.

Same assay, conditions: Table 2; data without asterisk; read-out: IC50 (nM) generated from Assay 1
In the case of `O=C(N[C@H](CN1CCC1)[C@H](O)c1ccc(OC2CC2)c(Cl)c1)C(F)(F)CCc1ccc2ccccc2c1` [Compound 171, N-((1R,2R)-3-(azetidin-1-yl)-1-(3-chloro-4-cyclopropoxyphenyl)-1-hydroxypropan-2-yl)-2,2-difluoro-4-(naphthalen-2-yl)butanamide], the IC50 is reported as < 50 nM.
In the case of `O=C(N[C@H](CN1CCCC1)[C@H](O)c1ccc(OC2CC2)nc1)C(F)(F)c1cc2cc(Cl)ccc2o1` [Compound 99, 2-(5-chlorobenzofuran-2-yl)-N-((1R,2R)-1-(6-cyclopropoxypyridin-3-yl)-1-hydroxy-3-(pyrrolidin-1-yl)propan-2-yl)-2,2-difluoroacetamide], the IC50 is reported as < 50 nM.
With `O=C(N[C@H](CN1CCC1)[C@H](O)c1cc(F)c2c(c1)OCCO2)/C(=N/O)c1ccc(-c2ccc(F)cc2)cc1` [Compound 155, (E)-N-((1R,2R)-3-(azetidin-1-yl)-1-(8-fluoro-2,3-dihydrobenzo[b][1,4]dioxin-6-yl)-1-hydroxypropan-2-yl)-2-(4′-fluoro-[1,1′-biphenyl]-4-yl)-2-(hydroxyimino)acetamide] the IC50 was < 50 nM.
`O=C(N[C@H](CN1CCC1)[C@H](O)c1cc(F)c2c(c1)OCCO2)C(=O)c1ccc(N2CCCCC2)cc1` [Compound 227, N-((1R,2R)-3-(azetidin-1-yl)-1-(8-fluoro-2,3-dihydrobenzo[b][1,4]dioxin-6-yl)-1-hydroxypropan-2-yl)-2-oxo-2-(4-(piperidin-1-yl)phenyl)acetamide] was tested, and the IC50 was < 50 nM.
`O=C(N[C@H](CN1CCCC1)[C@H](O)c1cc2c(c(C(F)(F)F)c1)OCCO2)C(=O)c1ccc(-c2ccc(F)cc2)cc1` [Example 286, 2-(4′-fluoro-[1,1′-biphenyl]-4-yl)-N-((1R,2R)-1-hydroxy-3-(pyrrolidin-1-yl)-1-(8-(trifluoromethyl)-2,3-dihydrobenzo[b][1,4]dioxin-6-yl)propan-2-yl)-2-oxoacetamide] gave an IC50 of 50 to 5000 nM.
For `COc1c(F)cc([C@@H](O)[C@@H](CN2CCCC2)NC(=O)C(=O)c2ccc(-c3ccc(F)cc3)cc2)cc1OC(C)C` [Compound 361, N-((1R,2R)-1-(3-fluoro-5-isopropoxy-4-methoxyphenyl)-1-hydroxy-3-(pyrrolidin-1-yl)propan-2-yl)-2-(4′-fluoro-[1,1′-biphenyl]-4-yl)-2-oxoacetamide], the IC50 was 50 to 5000 nM.
With `Cc1nn(C)c2ccc(-c3ccc(C(=O)C(=O)N[C@H](CN4CCCC4)[C@H](O)c4cc(F)c5c(c4)OCCO5)cc3)cc12` [Example 322, 2-(4-(1,3-dimethyl-1H-indazol-5-yl)phenyl)-N-((1R,2R)-1-(8-fluoro-2,3-dihydrobenzo[b][1,4]dioxin-6-yl)-1-hydroxy-3-(pyrrolidin-1-yl)propan-2-yl)-2-oxoacetamide] the IC50 was < 50 nM.
In the case of `Cn1ncc2cc(-c3ccc(C(=O)C(=O)N[C@H](CN4CCCC4)[C@H](O)c4cc(F)c5c(c4)OCCO5)cc3)ccc21` [Compound 220, N-((1R,2R)-1-(8-fluoro-2,3-dihydrobenzo[b][1,4]dioxin-6-yl)-1-hydroxy-3-(pyrrolidin-1-yl)propan-2-yl)-2-(4-(1-methyl-1H-indazol-5-yl)phenyl)-2-oxoacetamide], the IC50 is reported as < 50 nM.
For `O=C(N[C@H](CN1CCCC1)[C@H](O)c1cc(F)c2c(c1)OCCO2)C(=O)c1ccc(-c2ccc(F)cc2)cc1` [Compound 133, N-((1R,2R)-1-(8-fluoro-2,3-dihydrobenzo[b][1,4]dioxin-6-yl)-1-hydroxy-3-(pyrrolidin-1-yl)propan-2-yl)-2-(4′-fluoro-[1,1′-biphenyl]-4-yl)-2-oxoacetamide], the IC50 was < 50 nM.
For `O=C(N[C@H](CN1CCCC1)[C@H](O)c1ccc(OC2CC2)c(Cl)c1)C(=O)c1ccc2nn(-c3ccc(F)cc3)cc2c1` [Example 354, N-((1R,2R)-1-(3-chloro-4-cyclopropoxyphenyl)-1-hydroxy-3-(pyrrolidin-1-yl)propan-2-yl)-2-(2-(4-fluorophenyl)-2H-indazol-5-yl)-2-oxoacetamide], the IC50 was < 50 nM.
`O=C(N[C@H](CN1CCC1)[C@H](O)c1ccc(OC2CC2)c(Cl)c1)C(=O)c1ccc(N2CCCC2)cc1` [Example 327, N-((1R,2R)-3-(azetidin-1-yl)-1-(3-chloro-4-cyclopropoxyphenyl)-1-hydroxypropan-2-yl)-2-oxo-2-(4-(pyrrolidin-1-yl)phenyl)acetamide] was tested, and the IC50 was < 50 nM.

Same assay, conditions: Table 3; MDCK cell lysate; read-out: IC50 (nM) generated from Assay 1
With `O=C(N[C@H](CN1CCCC1)[C@H](O)c1ccc(OC2CC2)cc1)C(=O)c1cc2cc(Cl)ccc2s1` [Example 391, 2-(5-chlorobenzo[b]thiophen-2-yl)-N-((1R,2R)-1-(4-cyclopropoxyphenyl)-1-hydroxy-3-(pyrrolidin-1-yl)propan-2-yl)-2-oxoacetamide] the IC50 was < 50 nM.
